From patent US5492930A, “Method and formulation for treating CNS disorders” (Schering Corporation, priority 1994, dated 1996)
Read-outs that look alike come from different tables or passages of the source.

Tests used:
[1] = test system: amnestic effects of MK-801; conditions: Chiamulera et al. 1990; cited from earlier work
[2] = test system: electroconvulsive shock (ECS) induced convulsions; assay: blocking electroconvulsive shock (ECS) induced convulsions (Swinyard et al. procedures); assay type: in vivo
[3] = test system: amnestic effects of MK-801; assay: passive avoidance response (PAR) test, amnestic effects of MK-801; assay type: in vivo; conditions: mice
Excerpt: FIG. 3 is a plot showing the mean latency time in the PAR test of felbamate and Compound I in blocking the amnestic effects of MK-801.
FIG. 4 is a plot showing the mean latency time in the PAR test of Compound I and the corresponding monoacid-monocarbamate.
(§1) The NMDA receptor is strongly implicated in the production of long-term potentiation and subsequent memory processes (Morris, et al., Nature Vol. 319, pp 774-776 (1986)). Blockade of these sites produces amnestic effects in mice on the passive avoidance response.

[4] = literature statement; cited from earlier work
[5] = test system: scopolamine induced cognitive deficit; conditions: passive avoidance response test, mice; cited from earlier work
[6] = test system: scopolamine induced cognitive deficit; assay: passive avoidance response (PAR) test, scopolamine induced cognitive deficit; assay type: in vivo; conditions: mice, sc or po (FIGS. 1 and 2)
Description: FIGS. 1 and 2 are plots showing the mean latency time in the passive avoidance response (PAR) test of Compound I and arecoline in reversing scopolamine induced cognitive deficits where Compound I is administered subcutaneously (sc) or orally (po).
(§2) See, for example Dilts and Berry, J. Pharmacology and Experimental Therapeutics 58, 279-285 (1967).

[7] = test system: cognitive deficits (scopolamine, MK-801); assay: cognitive enhancement (Examples I and II overall); assay type: in vivo, mice; conditions: data of Examples I and II
Excerpt: as §2, §1

[8] = SC, blocking ECS induced convulsions, read-out: ED50

Compound: C[C@]12N[C@H](Cc3ccccc31)c1ccccc12 [MK-801]
- cognitive deficits produced [1]: produces cognitive deficits

Compound: O=C1NC(=O)C(c2ccccc2)(c2ccccc2)N1 [Dilantin]
- ED50 [2, 8]: 5.5 mg/kg

Compound: NC(=O)N1c2ccccc2C=Cc2ccccc21 [Carbamazepine]
- ED50 [2, 8]: 12 mg/kg

Compound: NC(=O)OCC(COC(N)=O)c1ccccc1 [Felbamate, 2-phenyl-1,3-propanediol dicarbamate]
- blocking the amnestic effects of MK-801 [3]: does not block the effect of MK-801
- anticonvulsant effect [4]: effective anticonvulsant agent
- ED50 [2, 8]: 42.2 mg/kg

Compound: CCCC(CCC)C(=O)O [Valproate]
- ED50 ([2]; sc): 550 mg/kg

Compound: CN1[C@@H]2C[C@@H](OC(=O)[C@H](CO)c3ccccc3)C[C@H]1[C@@H]1O[C@@H]12 [Scopolamine]
- amnestic effect [5]: well-known amnestic for mice in a passive avoidance response test

Compound: NC(=O)OCC(CO)c1ccccc1 (stereo not drawn) [Compound I, 2-phenyl-1,3-propanediol monocarbamate]
- antagonism of the amnestic effects of scopolamine [6]: antagonist for the amnestic effects of scopolamine over a very wide dosage range
- blocking the amnestic effects of MK-801 [3]: effectively blocks the amnestic effects of MK-801 in this model at low doses
- effectiveness in blocking the effects of MK-801 vs the corresponding monoacid-monocarbamate [3]: more effective than the corresponding monoacid-monocarbamate
- effectiveness vs the corresponding dicarbamate and monoacid-monocarbamate compounds [7]: significantly more effective than the corresponding dicarbamate and monoacid-monocarbamate compounds
- effectiveness in blocking ECS induced convulsions vs felbamate and other known anti-convulsants ([2]; in words): significantly less effective than felbamate and other known anti-convulsants
- ED50 ([2]; sc): 173 mg/kg

Compound: CCC1(c2ccccc2)C(=O)NC(=O)NC1=O [Phenobarbital]
- ED50 ([2]; sc): 12 mg/kg
